Non-standard residues stand in square brackets, D forms with d. No end group written: not given here.
How the values were obtained:
[1] = tested on: adipose tissue gene expression; assay: qPCR of inflammatory cytokines in epididymal and subcutaneous adipose tissue of WD-fed apoE−/− mice; type: in vivo; conditions: endpoint
Text: (§1) Eight-week-old male apolipoprotein E-deficient (apoE−/−) mice (B6.129P2-Apoetm1Unc/J, Stock No.: 002052) were obtained from Jackson Laboratories. Mice were fed Western diet (WD, 42% of calories from fat and 0.2% cholesterol by weight, Envigo TD.88137). After one week of WD feeding, blood was carefully collected from the facial vein to determine baseline plasma levels of total cholesterol (TC). […] All mice were maintained on a 12-hour light/dark cycle and had ad libitum access to food and water. Body weight and food intake were measured every one and three weeks, respectively
Total RNA from liver or adipose tissue samples was extracted using QIAGEN's RNeasy kits (QIAGEN). RNA was reverse-transcribed into cDNA with SuperScript III and random primers (Invitrogen). Specific transcript levels were assessed by a real-time PCR system (Bio-Rad) using IQ SYBR Green Supermix (Bio-Rad) and the ΔΔCt threshold cycle method of normalization. Gene expression levels were normalized to glyceraldehyde 3-phosphate dehydrogenase (GAPDH). Primer pairs used for qPCR were obtained from Integrated DNA Technologies and are listed below: […]

blood glucose [2] = assay: OGTT in C57BL/6J mice given glucose with glycine-based compounds; type: in vivo
Method: OGTT were performed in C57BL/6J mice after 12 h fasting (n=6-8).
OGTT were performed after 12 h fasting. […] Blood glucose concentrations were measured using a blood glucometer and test strips (Contour Next).

hepatic gene expression = assay: qPCR analysis of hepatic gene expression in WD-fed apoE−/− mice; type: in vivo; conditions: for Hepatic expression of CCL2 / Hepatic expression of TNFα / Hepatic expression of key genes regulating FAO (PPARα, PNPLA2, CACT, CPT1a, ACADL): apoE−/− mice on WD, qPCR (FIG. 16D)
Text: as §1
(§2) Total RNA from liver or adipose tissue samples was extracted using QIAGEN's RNeasy kits (QIAGEN). RNA was reverse-transcribed into cDNA with SuperScript III and random primers (Invitrogen). Specific transcript levels were assessed by a real-time PCR system (Bio-Rad) using IQ SYBR Green Supermix (Bio-Rad) and the ΔΔCt threshold cycle method of normalization. Gene expression levels were normalized to glyceraldehyde 3-phosphate dehydrogenase (GAPDH). Primer pairs used for qPCR were obtained from Integrated DNA Technologies and are listed below:
as §2, with “from mouse” for “from”, “liver” for “liver or adipose tissue”, “glycerldehyde” for “glyceraldehyde”, “(GAPDH).” for “(GAPDH). Primer pairs used for qPCR were obtained from Integrated DNA Technologies and are listed below:”

NASH-diet-induced HS = type: in vivo, mice; conditions: endpoint
Method: Frozen section processing was used for Oil Red O (ORO) staining. Formalin-fixed liver samples were cryoprotected in 20% sucrose at 4° C. overnight, blotted, then liquid nitrogen-snap frozen in O.C.T. Compound (Tissue-Tek, Cat #4583) and stored at −80° C. until ready for cryosectioning. Prior to sectioning, frozen blocks were brought up to about −20° C., then sectioned at 5 μm on a Cryotome SME (Thermo-Shandon, Cat #77200227). Slides were stored at −80° C. until stained. Prior to staining, liver slides were thawed to room temperature for 30 min. Slides were post-fixed in 10% Neutral Buffered Formalin for 20 min, rinsed in DDW, followed by rinsing in 60% Isopropanol before being placed in working ORO-isopropanol stain (Rowley Biochemical Inc., H-503-1B) for 5 min. Slides were then rinsed in 60% Isopropanol followed by three changes of DDW. Then, slides were nuclear counterstained in Harris Hematoxylin and mounted in Aqua-Mount (Lerner Laboratories, Cat #13800) aqueous mounting media.
Livers were rapidly removed from the euthanized mice, snap-frozen with liquid nitrogen, and kept at −80° C. Frozen liver samples (100 mg) were homogenized in PBS and centrifuged (14,000 RPM, 20 min). The supernatants were collected and analyzed for protein content using Bio-Rad Bradford assay. To assess liver lipid composition, lipids were extracted from the supernatants using hexane (≥99%, Sigma-Aldrich 32293) and isopropanol (≥99.5%, Fisher Scientific A428-4) at a 3:2 ratio (v:v), and the hexane phase was left for evaporation for 48 h. […] Liver diacylglycerols (DAG) were determined using ELISA Kit (Aviva Systems Biology, OKEH02607), according to the manufacturer's instructions. Hepatic TG, TC and DAG data were normalized to protein levels.
Mice fed CD and administered H2O served as control.

gut microbiota = conditions: mice with established NASH
Method: Total genomic DNA of the gut microbiota was extracted from fecal samples using the QIAamp DNA Stool Mini Kit (51540, Qiagen) according to the manufacturer's instructions. DNA was prepared for community analysis as previously described.17 Briefly, barcoded dual-index primers specific to the V4 region of the 16S rRNA gene were used to amplify the DNA.18 PCR reactions were composed of 5 μL of 4 μM equimolar primer set, 0.15 μL of AccuPrime Taq DNA High Fidelity Polymerase, 2 μL of 10×AccuPrime PCR Buffer II (Thermo Fisher Scientific 12346094), 11.85 μL of PCR-grade water, and 1 μL of DNA template. […] The normalized reactions were pooled and quantified using the Kapa Biosystems Library qPCR MasterMix (ROX Low) Quantification kit for Illumina platforms (KK4873). […]
DNA sequencing data was processed using Mothur according to SOP and focused primarily on α- and β-diversity based analyses. […] Constrained ordination RDA (redundancy analysis) was calculated, and the significance of environmental variables was checked by forward selection analysis. […] The principal component analysis (PCA) was plotted accordingly using Phyloseq package in R. The correlations between changes in the altered bacterial genera and NAFLD-related parameters in the liver or plasma were calculated using nonparametric Spearman's test.

[3] = NASH-diet
Method: Body composition was assessed using nuclear magnetic resonance (NMR)-based analyzer (Minispec LF90II; Bruker Optics) at the U-M Animal Phenotyping Core. Oxygen consumption (VO2), carbon dioxide production (VCO2) and motor activity were measured using CLAMS (Columbus Instruments). Respiratory exchange ratio (RER) Is VCO2/VO2.
All measurements were performed by the University of Michigan Animal Phenotyping Core. Body fat, lean body mass, and free fluids were measured using a nuclear magnetic resonance (NMR)-based analyzer (Minispec LF90II; Bruker Optics). The analyzer is daily checked using a reference sample as recommended by the manufacture. The mice were placed individually into the measuring tube with minimum restrain. Oxygen consumption (VO2), carbon dioxide production (VCO2) and motor activity were measured using CLAMS (Columbus Instruments), an integrated open-circuit calorimeter equipped with an optical beam activity monitoring device. Mice were weighed before the measurements and individually placed into the sealed chambers (7.9″×4″×5″) with free access to food and water. The study was carried out in an experimentation room set at 20-23° C. with 12-12 h dark-light cycles (6:00 PM-6:00 AM). Measurements were carried out continuously for 48 h. During this time, animals were provided with food and water through the feeding and drinking devices located inside the chamber. VO2 and VCO2 in each chamber were sampled sequentially for 5 s in 10 min intervals and the motor activity was recorded every second in X and Z dimensions. The air flow rate through the chambers was adjusted to keep the oxygen differential around 0.3% at resting conditions. Respiratory exchange ratio (RER) was calculated as VCO2/VO2. Total energy expenditure, glucose oxidation and fat oxidation were calculated based on the values of VO2, VCO2, and the protein breakdown.

SMAD2 = conditions: NASH-diet, liver
Method: Liver samples were lysed in radioimmunoprecipitation assay lysis buffer (RIPA buffer, Thermo Scientific) supplemented with a protease/phosphatase inhibitor cocktail (Roche Applied Science). Proteins were resolved in 10% sodium dodecyl sulfate polyacrylamide gel electrophoresis (SDS-PAGE) and transferred to nitrocellulose membranes (Bio-Rad). The membranes were blocked for 1 h at room temperature in tris-buffered saline-Tween 20 (TBST) containing 5% fat-free milk and incubated with primary antibody at 4° C. overnight. The following primary antibodies were used: AGXT1 (Santa Cruz Biotechnology sa-517388, 1:500), HADHA (Proteintech 10758-1-AP, 1:1000), ACAA2 (ABcional A15778, 1:500), phospho-SMAD2 (Ser485/487, Cell Signaling, #3108S; 1:1000), SMAD2 (Cell Signaling Technology, #5339S; 1:1000), GAPDH (Santa Cruz Biotechnology so-365062; 1:2000), or β-Actin (Cell Signaling Technology #3700). The membranes were washed with TBST before incubated with IRDye-conjugated secondary antibodies (LI-COR Biosciences, 1:10000) at room temperature for 1 h. After TBST washing, bands were visualized and quantified using an Odyssey Infrared Imaging System (LI-COR Biosciences, version 2.1).

blood glucose [4] = conditions: previous studies from the applicant's lab; cited from earlier work
plasma glucose = conditions: humans, glycine ingested together with glucose; cited from earlier work
[5] = KK-Ay mice, dietary glycine; cited from earlier work
[6] = sucrose-fed rats; cited from earlier work
circulating TG = conditions: apoE−/− mice, chronic glycine supplementation 1 mg/g/day; cited from earlier work
[7] = obese C57BL/6 mice, chronic glycine supplementation 1 mg/g/day; cited from earlier work
[8] = tested on: hemoglobin-A1c and plasma TNFR1; conditions: T2D patients, 5 g/day for 3 months; cited from earlier work
[9] = 0.5 mg/g/day DT-109, compared to the H2O controls

Gly-Gly-Leu [DT-109]
MCP1 expression in EAT and SAT [1]: significantly suppressed
Glucose-lowering effect in OGTT compared with glycine (blood glucose [2]; 12 h fasting, glucose 2 mg/g with 0.5 mg/g compound, oral): lowered glucose more efficiently than glycine
Glucose-lowering effect in OGTT compared with equivalent levels of free leucine or glycine (blood glucose [2]; DT-109 0.5 mg/g vs leucine 0.17 or glycine 0.33 mg/g): particularly when compared to equivalent levels of its individual AA
Hepatic expression of CCL2 (hepatic gene expression): downregulation
Hepatic expression of TNFα (hepatic gene expression): without significant changes
Hepatic expression of key genes regulating FAO (PPARα, PNPLA2, CACT, CPT1a, ACADL) (hepatic gene expression): upregulation
Hepatic expression of ABCG5 and ABCG8 (hepatic gene expression; liver, endpoint, qPCR): significantly increased
Hepatic expression of AMPKα1 and PPARα (hepatic gene expression; liver, endpoint, qPCR): significantly induced
Hepatic expression of PNPLA2, CPT1a, CACT, ACADI and UCP2 (hepatic gene expression; liver, endpoint, qPCR): significantly upregulated
HS by ORO and lipid quantification (NASH-diet-induced HS): significantly attenuated
Liver diacylglycerols (DAG) (NASH-diet-induced HS; 0.5 mg/g/day DT-109): significantly reduced
Bacterial genus Alistipes in gut microbiota (gut microbiota): increased
Bacterial genus Clostridium sensu stricto in gut microbiota (gut microbiota): decreased
Body fat [3, 9]: reduced body fat
Lean mass [3, 9]: preserved lean mass
Respiratory exchange ratio (RER) ([3]; CLAMS weeks 22-23, DT-109 at 0.5 mg/g/day): no significant differences
SMAD2 Ser465/467 phosphorylation (SMAD2): reduced SMAD2 Ser465/467 phosphorylation
Glucose-lowering effects (previous studies) (blood glucose [4]): profound glucose-lowering effects

Gly-Gly-[dL] [DT-110]
MCP1 expression in EAT and SAT [1]: significantly suppressed
TNFα expression in EAT [1]: most significant effects
Hepatic GLUT1 expression (hepatic gene expression; liver, endpoint, qPCR): markedly induced
Hepatic expression of ABCG5 and ABCG8 (hepatic gene expression; liver, endpoint, qPCR): significantly increased
Hepatic expression of AMPKα1 and PPARα (hepatic gene expression; liver, endpoint, qPCR): significantly induced
Hepatic expression of LDLR (hepatic gene expression; liver, endpoint, qPCR): significant upregulation
Hepatic expression of PNPLA2, CPT1a, CACT, ACADI and UCP2 (hepatic gene expression; liver, endpoint, qPCR): significantly upregulated

NCC(=O)O [glycine, reference compound]
MCP1 expression in EAT and SAT [1]: significantly suppressed
Hepatic expression of CCL2 (hepatic gene expression): downregulation
Hepatic expression of TNFα (hepatic gene expression): without significant changes
Hepatic expression of key genes regulating FAO (PPARα, PNPLA2, CACT, CPT1a, ACADL) (hepatic gene expression): upregulation
Hepatic expression of ABCG5 and ABCG8 (hepatic gene expression; liver, endpoint, qPCR): significantly increased
Hepatic expression of AMPKα1 and PPARα (hepatic gene expression; liver, endpoint, qPCR): significantly induced
Hepatic expression of PNPLA2, CPT1a, CACT, ACADI and UCP2 (hepatic gene expression; liver, endpoint, qPCR): significantly upregulated
Hepatic expression of genes regulating gluconeogenesis (G6pc, PCK1 and FBP1) (hepatic gene expression; liver, endpoint, qPCR): no significant change
Hepatic expression of genes regulating glucose uptake (GLUT1, GLUT2 and GLUT4) (hepatic gene expression; liver, endpoint, qPCR): upregulated
MCP1 expression in the liver (hepatic gene expression; liver, endpoint, qPCR): suppressed
HS by ORO and lipid quantification (NASH-diet-induced HS): significantly attenuated
Attenuation of the increase in plasma glucose (plasma glucose): > 50%
Glucose tolerance, circulating TG, ALT, HS and inflammatory infiltration [5]: improved glucose tolerance, lowered circulating TG and alanine-aminotransferase (ALT), while attenuating HS and inflammatory infiltration
Intra-abdominal fat, plasma TG and FAO markers in hepatic mitochondria [6]: reduced intra-abdominal fat, plasma TG and increased FAO markers in hepatic mitochondria
Circulating TG (circulating TG): reduce circulating TG
Glucose tolerance and fat loss [7]: restore glucose tolerance and accelerate fat loss
Hemoglobin-A1c and plasma TNFR1 [8]: reduced hemoglobin-A1c and plasma TNFR1

CC(C)C[C@H](N)C(=O)O [leucine]
HS by ORO and lipid quantification (NASH-diet-induced HS): marked HS
